Numbers after ± are expanded uncertainties.
Assay: xn = mol fraction of the nth substance listed
Settings: for mass density / viscosity: 100 kPa, Liquid; for mass density: Vibrating tube method; for surface tension liquid-gas: Drop volume

CC12CC3CC(C)(C1)CC(C)(C3)C2 [1,3,5-trimethyladamantane] + CCCCCCCO
Settings	mass density [kg/m3]	surface tension liquid-gas [mN/m]	viscosity [mPa·s]
293.15 K, x2 = 0	887.48 ± 0.13	–	2.601 ± 0.041
293.15 K, x2 = 0.1001	882.47 ± 0.13	–	2.626 ± 0.041
293.15 K, x2 = 0.2001	877.46 ± 0.13	–	2.775 ± 0.043
293.15 K, x2 = 0.3002	872.11 ± 0.14	–	2.97 ± 0.047
293.15 K, x2 = 0.4004	866.49 ± 0.14	–	3.242 ± 0.051
293.15 K, x2 = 0.5001	860.53 ± 0.14	–	3.5 ± 0.055
293.15 K, x2 = 0.6002	854.11 ± 0.15	–	4.051 ± 0.064
293.15 K, x2 = 0.7001	847.23 ± 0.15	–	4.645 ± 0.073
293.15 K, x2 = 0.7999	839.77 ± 0.15	–	5.371 ± 0.084
293.15 K, x2 = 0.9002	831.44 ± 0.16	–	6.221 ± 0.098
298.15 K, x2 = 0	883.99 ± 0.13	26.17 ± 0.15	2.338 ± 0.037
298.15 K, x2 = 0.1001	878.9 ± 0.13	26.19 ± 0.15	2.349 ± 0.037
298.15 K, x2 = 0.2001	873.88 ± 0.14	26.22 ± 0.16	2.469 ± 0.039
298.15 K, x2 = 0.3002	868.52 ± 0.14	26.26 ± 0.16	2.632 ± 0.041
298.15 K, x2 = 0.4004	862.91 ± 0.14	26.32 ± 0.16	2.854 ± 0.045
298.15 K, x2 = 0.5001	856.94 ± 0.14	26.34 ± 0.16	3.131 ± 0.049
298.15 K, x2 = 0.6002	850.53 ± 0.15	26.36 ± 0.16	3.51 ± 0.055
298.15 K, x2 = 0.7001	843.66 ± 0.15	26.32 ± 0.16	3.99 ± 0.063
298.15 K, x2 = 0.7999	836.22 ± 0.15	26.3 ± 0.16	4.567 ± 0.072
298.15 K, x2 = 0.9002	827.93 ± 0.16	26.29 ± 0.16	5.229 ± 0.082
303.15 K, x2 = 0	880.47 ± 0.13	–	2.118 ± 0.033
303.15 K, x2 = 0.1001	875.31 ± 0.13	–	2.114 ± 0.033
303.15 K, x2 = 0.2001	870.27 ± 0.14	–	2.212 ± 0.035
303.15 K, x2 = 0.3002	864.91 ± 0.14	–	2.35 ± 0.037
303.15 K, x2 = 0.4004	859.29 ± 0.14	–	2.533 ± 0.04
303.15 K, x2 = 0.5001	853.32 ± 0.14	–	2.758 ± 0.043
303.15 K, x2 = 0.6002	846.91 ± 0.15	–	3.066 ± 0.048
303.15 K, x2 = 0.7001	840.05 ± 0.15	–	3.457 ± 0.054
303.15 K, x2 = 0.7999	832.63 ± 0.15	–	3.924 ± 0.062
303.15 K, x2 = 0.9002	824.38 ± 0.16	–	4.464 ± 0.07
308.15 K, x2 = 0	876.94 ± 0.13	–	1.93 ± 0.03
308.15 K, x2 = 0.1001	871.72 ± 0.13	–	1.911 ± 0.03
308.15 K, x2 = 0.2001	866.65 ± 0.14	–	1.992 ± 0.031
308.15 K, x2 = 0.3002	861.27 ± 0.14	–	2.108 ± 0.033
308.15 K, x2 = 0.4004	855.65 ± 0.14	–	2.261 ± 0.035
308.15 K, x2 = 0.5001	849.68 ± 0.14	–	2.444 ± 0.038
308.15 K, x2 = 0.6002	843.28 ± 0.15	–	2.699 ± 0.042
308.15 K, x2 = 0.7001	836.41 ± 0.15	–	3.015 ± 0.047
308.15 K, x2 = 0.7999	829.02 ± 0.15	–	3.396 ± 0.053
308.15 K, x2 = 0.9002	820.8 ± 0.16	–	3.841 ± 0.06
313.15 K, x2 = 0	873.4 ± 0.13	–	1.765 ± 0.028
313.15 K, x2 = 0.1001	868.1 ± 0.14	–	1.737 ± 0.027
313.15 K, x2 = 0.2001	863 ± 0.14	–	1.802 ± 0.028
313.15 K, x2 = 0.3002	857.62 ± 0.14	–	1.899 ± 0.03
313.15 K, x2 = 0.4004	851.98 ± 0.14	–	2.027 ± 0.032
313.15 K, x2 = 0.5001	846.01 ± 0.15	–	2.178 ± 0.034
313.15 K, x2 = 0.6002	839.62 ± 0.15	–	2.387 ± 0.037
313.15 K, x2 = 0.7001	832.76 ± 0.15	–	2.648 ± 0.042
313.15 K, x2 = 0.7999	825.37 ± 0.16	–	2.957 ± 0.047
313.15 K, x2 = 0.9002	817.19 ± 0.16	–	3.327 ± 0.052
318.15 K, x2 = 0	869.86 ± 0.13	–	1.621 ± 0.025
318.15 K, x2 = 0.1001	864.47 ± 0.14	–	1.585 ± 0.025
318.15 K, x2 = 0.2001	859.34 ± 0.14	–	1.636 ± 0.026
318.15 K, x2 = 0.3002	853.95 ± 0.14	–	1.719 ± 0.027
318.15 K, x2 = 0.4004	848.3 ± 0.14	–	1.826 ± 0.029
318.15 K, x2 = 0.5001	842.32 ± 0.15	–	1.952 ± 0.031
318.15 K, x2 = 0.6002	835.93 ± 0.15	–	2.124 ± 0.033
318.15 K, x2 = 0.7001	829.07 ± 0.15	–	2.338 ± 0.037
318.15 K, x2 = 0.7999	821.7 ± 0.16	–	2.593 ± 0.041
318.15 K, x2 = 0.9002	813.54 ± 0.16	–	2.899 ± 0.046
323.15 K, x2 = 0	866.31 ± 0.13	–	1.494 ± 0.024
323.15 K, x2 = 0.1001	860.82 ± 0.14	–	1.452 ± 0.023
323.15 K, x2 = 0.2001	855.66 ± 0.14	–	1.494 ± 0.024
323.15 K, x2 = 0.3002	850.25 ± 0.14	–	1.561 ± 0.025
323.15 K, x2 = 0.4004	844.59 ± 0.14	–	1.652 ± 0.026
323.15 K, x2 = 0.5001	838.61 ± 0.15	–	1.756 ± 0.028
323.15 K, x2 = 0.6002	832.21 ± 0.15	–	1.899 ± 0.03
323.15 K, x2 = 0.7001	825.35 ± 0.15	–	2.049 ± 0.032
323.15 K, x2 = 0.7999	817.99 ± 0.16	–	2.287 ± 0.036
323.15 K, x2 = 0.9002	809.87 ± 0.16	–	2.541 ± 0.04
328.15 K, x2 = 0	862.76 ± 0.13	–	1.384 ± 0.022
328.15 K, x2 = 0.1001	857.16 ± 0.14	–	1.335 ± 0.022
328.15 K, x2 = 0.2001	851.96 ± 0.14	–	1.368 ± 0.022
328.15 K, x2 = 0.3002	846.53 ± 0.14	–	1.424 ± 0.023
328.15 K, x2 = 0.4004	840.86 ± 0.15	–	1.5 ± 0.024
328.15 K, x2 = 0.5001	834.86 ± 0.15	–	1.587 ± 0.025
328.15 K, x2 = 0.6002	828.46 ± 0.15	–	1.707 ± 0.027
328.15 K, x2 = 0.7001	821.6 ± 0.15	–	1.855 ± 0.029
328.15 K, x2 = 0.7999	814.26 ± 0.16	–	2.029 ± 0.032
328.15 K, x2 = 0.9002	806.15 ± 0.16	–	2.239 ± 0.035
333.15 K, x2 = 0	859.2 ± 0.14	–	1.284 ± 0.021
333.15 K, x2 = 0.1001	853.48 ± 0.14	–	1.232 ± 0.02
333.15 K, x2 = 0.2001	848.24 ± 0.14	–	1.257 ± 0.021
333.15 K, x2 = 0.3002	842.78 ± 0.14	–	1.303 ± 0.021
333.15 K, x2 = 0.4004	837.09 ± 0.15	–	1.367 ± 0.022
333.15 K, x2 = 0.5001	831.09 ± 0.15	–	1.44 ± 0.023
333.15 K, x2 = 0.6002	824.68 ± 0.15	–	1.54 ± 0.024
333.15 K, x2 = 0.7001	817.82 ± 0.16	–	1.663 ± 0.026
333.15 K, x2 = 0.7999	810.48 ± 0.16	–	1.808 ± 0.028
333.15 K, x2 = 0.9002	802.4 ± 0.16	–	1.984 ± 0.031
